Assay results as given in article PMC5303205, “Comparative studies on the multi-component pharmacokinetics of Aristolochiae Fructus and honey-fried Aristolochiae Fructus extracts after oral administration in rats” (BMC Complementary and Alternative Medicine, 2017).
Read-outs that look alike come from different tables or passages of the source.

Assays:
[1] = Multi-component pharmacokinetics of AAs in rats after oral administration of AF and HAF extracts (HPLC-MS/MS of plasma); set-up: species or system Sprague–Dawley (SD) rats; settings: Sprague-Dawley, rat, in vivo
Method: An aliquot (100 μl) of rat plasma was spiked with 10.0 μL IS, and vortexed with 300 μL acetic ether for 10 s before the supernatant was transferred into centrifuge tube. The extraction was repeated with 200 μL acetic ether. The combined organic layer was evaporated to dryness under a gentle stream of nitrogen at RT. The residue was resolved in 100 μL methanol and centrifuged at 15,800 × g for 10 min. The supernatant was used for HPLC-MS/MS analysis.
Chromatographic separation was performed by an Acquity C18 column (4.6 × 100 mm,3.5 μm) (Agilent Technologies, USA). The mobile phase was composed of water (containing 10 mM ammonium formate and formic acid, pH 3.0) (solvent A) and ACN (solvent B). The gradient profile of B was: 0–10 min, 35–38%; 10–11 min, 38– 60%; 11–17 min, 60–35%B; 17–18 min, 35%. The flow rate was kept at 0.5 mL/min. The column oven was set at 30 °C and the injection volume was 10 μL.
The mass spectrometer was operated in the positive ion electrospray mode with multiple reaction monitoring (MRM). The optimal MS parameters were set at the following parameters: a desolvation gas temperature of 450 °C, desolvation gas flow of 10 L/min, a nebulizer gas of 40 psi and a capillary voltage of 4000 V. The mass spectrometry conditions of AA I, AA II, AA C, AA D, 7-OH AA I and IS are summarized in Additional file 1: Table S1.
The rats were randomly divided into 6 groups (low, middle and high doses of AF and HAF; n = 6). After a week of acclimation, the animals were fasted for 12 h with free access to water. Then, AF and HAF extracts were administered to the rats. The extracts were suspended in 0.5% CMC–Na solution, and the oral doses (according to AA I in the extracts) were 3.0 mg/kg, 8.0 mg/kg and 15.0 mg/kg, respectively.
Blood samples were collected from the ocular vein using dried heparinized tubes at 0, 0.083, 0.17, 0.33, 0.50, 0.67, 0.83, 1, 2, 4, 6, 8, 10, 12 and 24 h from the start. The animals received fluid replacement (sterile isotonic saline) after every two samplings since the fifth collecting. The samples were then immediately centrifuged at 3100 × g for 10 min. The plasma obtained was frozen and stored at –20 °C until analysis.
All statistical analyses were performed using the SPSS 11.0 software (Chicago, USA). P values <0.05 were considered statistically significant. Pharmacokinetic analysis was performed using the proprietary DAS 3.0 software (Mathematical Pharmacology Professional Committee of China, Shanghai, China).
After the oral administration of AF and HAF extracts, rat plasma samples were prepared and analyzed as described above. Five main AAs can be detected in rat blood with the proposed HPLC-MS/MS method. The mean pharmacokinetic parameters of five AAs in AF and HAF are summarized in Tables 4, 5 and Additional files 5, 6, 7: Tables S4-S6. The maximum concentration (C max) was the experimentally-observed value. The other pharmacokinetic parameters of the five analytes were fitted by DAS 3.0 software.

[2] = Stability of AAs in rat plasma (QC samples, HPLC-MS/MS); type: in vitro ADME; settings: n = 5; for Short-term stability (RSD/%): fresh rat plasma at room temperature for 24 h before sample preparation; for Post-preparation stability (RSD/%): prepared rat plasma samples at room temperature for 24 h; for Long-term stability (RSD/%): rat plasma stored at –20 °C for 14 days; for Freeze-thaw stability (RSD/%): rat plasma, three freeze-thaw cycles (–20 °C 24 h, thawed at room temperature)
Method: The QC samples were assayed under several different conditions to evaluate the stability of AAs in rat plasma. The freeze-thaw stability of the analyte was determined over three freeze-thaw cycles. In each freeze-thaw cycle, the samples were frozen and stored at –20 °C for 24 h, then thawed at room temperature. To evaluate the long-term stability of AAs, the plasma samples were stored at –20 °C for 14 days. For the short-term stability, fresh plasma samples were kept at room temperature for 24 h before the sample preparation. After keeping the samples at room temperature for 24 h, post-preparation stability was tested. Stability was evaluated by comparing the mean concentration of the stored samples with the mean concentration of those prepared freshly. The stability data were acceptable when the bias was within ±15% of the actual value.

[3] = 3 mg/kg, AF extract, low dose (3.0 mg/kg as AA I), analyte dose mg/kg: AA I 3.0, AA II 0.21, AA C 1.42, AA D 1.60, 7-OH AA I 2.33, n = 6
[4] = 3 mg/kg, HAF extract, low dose (3.0 mg/kg as AA I), analyte dose mg/kg: AA I 3.0, AA II 0.26, AA C 1.53, AA D 1.51, 7-OH AA I 2.48, n = 6
[5] = 8 mg/kg, AF extract, mid dose (8.0 mg/kg as AA I), analyte dose mg/kg: AA I 8.0, AA II 0.56, AA C 3.78, AA D 4.26, 7-OH AA I 6.22, n = 6
[6] = 8 mg/kg, HAF extract, mid dose (8.0 mg/kg as AA I), analyte dose mg/kg: AA I 8.0, AA II 0.69, AA C 4.09, AA D 4.03, 7-OH AA I 6.62, n = 6
[7] = 15 mg/kg, AF extract, high dose (15.0 mg/kg as AA I), analyte dose mg/kg: AA I 15.0, AA II 1.05, AA C 7.09, AA D 8.00, 7-OH AA I 11.66, n = 6
[8] = 15 mg/kg, HAF extract, high dose (15.0 mg/kg as AA I), analyte dose mg/kg: AA I 15.0, AA II 1.29, AA C 7.66, AA D 7.56, 7-OH AA I 12.41, n = 6
[9] = high QC conc ng/mL: AA I 1830, AA II 3200, AA C 2980, AA D 3680, 7-OH AA I 3280
[10] = low QC conc ng/mL: AA I 1.83, AA II 8.00, AA C 186.3, AA D 36.8, 7-OH AA I 82.0
[11] = middle QC conc ng/mL: AA I 457.5, AA II 400, AA C 372.5, AA D 460, 7-OH AA I 410

## COc1cccc2c1cc([N+](=O)[O-])c1c(C(=O)O)cc3c(c12)OCO3 [AA I]
[1]; [3]
  AUC(0-inf): 6080 ± 1260 ng·h/mL
  Cmax: 1700 ± 571 ng/mL
  Tmax: 0.5 ± 0.09 h
[1]; 3 mg/kg, AF extract, low dose (3.0 mg/kg as AA I), analyte dose mg/kg: AA I 3.0, AA II 0.21, AA C 1.42, AA D 1.60, 7-OH AA I 2.33, n = 6, read-out: CLz/F (converted)
  CL/F: 9.5 mL/min/kg
[1]; 3 mg/kg, AF extract, low dose (3.0 mg/kg as AA I), analyte dose mg/kg: AA I 3.0, AA II 0.21, AA C 1.42, AA D 1.60, 7-OH AA I 2.33, n = 6, read-out: Vz/F
  Vd/F: 2.85 ± 0.15 L/kg
[1]; 3 mg/kg, AF extract, low dose (3.0 mg/kg as AA I), analyte dose mg/kg: AA I 3.0, AA II 0.21, AA C 1.42, AA D 1.60, 7-OH AA I 2.33, n = 6, read-out: t 1/2z (converted)
  half-life: 3.5 ± 0.5 h
[1]; [4]
  AUC(0-inf): 5230 ± 896 ng·h/mL
  Cmax: 1070 ± 223 ng/mL
  Tmax: 0.39 ± 0.08 h
[1]; 3 mg/kg, HAF extract, low dose (3.0 mg/kg as AA I), analyte dose mg/kg: AA I 3.0, AA II 0.26, AA C 1.53, AA D 1.51, 7-OH AA I 2.48, n = 6, read-out: CLz/F (converted)
  CL/F: 9.83 mL/min/kg
[1]; 3 mg/kg, HAF extract, low dose (3.0 mg/kg as AA I), analyte dose mg/kg: AA I 3.0, AA II 0.26, AA C 1.53, AA D 1.51, 7-OH AA I 2.48, n = 6, read-out: Vz/F
  Vd/F: 2.75 ± 0.24 L/kg
[1]; 3 mg/kg, HAF extract, low dose (3.0 mg/kg as AA I), analyte dose mg/kg: AA I 3.0, AA II 0.26, AA C 1.53, AA D 1.51, 7-OH AA I 2.48, n = 6, read-out: t 1/2z (converted)
  half-life: 3.22 ± 0.46 h
[1]; [5]
  AUC(0-inf): 12800 ± 1860 ng·h/mL
  Cmax: 3820 ± 450 ng/mL
  Tmax: 0.56 ± 0.09 h
[1]; 8 mg/kg, AF extract, mid dose (8.0 mg/kg as AA I), analyte dose mg/kg: AA I 8.0, AA II 0.56, AA C 3.78, AA D 4.26, 7-OH AA I 6.22, n = 6, read-out: CLz/F (converted)
  CL/F: 10.8 mL/min/kg
[1]; 8 mg/kg, AF extract, mid dose (8.0 mg/kg as AA I), analyte dose mg/kg: AA I 8.0, AA II 0.56, AA C 3.78, AA D 4.26, 7-OH AA I 6.22, n = 6, read-out: Vz/F
  Vd/F: 5.4 ± 0.48 L/kg
[1]; 8 mg/kg, AF extract, mid dose (8.0 mg/kg as AA I), analyte dose mg/kg: AA I 8.0, AA II 0.56, AA C 3.78, AA D 4.26, 7-OH AA I 6.22, n = 6, read-out: t 1/2z (converted)
  half-life: 5.58 ± 0.65 h
[1]; [6]
  AUC(0-inf): 8990 ± 1780 ng·h/mL
  Cmax: 2000 ± 313 ng/mL
  Tmax: 0.42 ± 0.08 h
[1]; 8 mg/kg, HAF extract, mid dose (8.0 mg/kg as AA I), analyte dose mg/kg: AA I 8.0, AA II 0.69, AA C 4.09, AA D 4.03, 7-OH AA I 6.62, n = 6, read-out: CLz/F (converted)
  CL/F: 11.3 mL/min/kg
[1]; 8 mg/kg, HAF extract, mid dose (8.0 mg/kg as AA I), analyte dose mg/kg: AA I 8.0, AA II 0.69, AA C 4.09, AA D 4.03, 7-OH AA I 6.62, n = 6, read-out: Vz/F
  Vd/F: 4.58 ± 0.37 L/kg
[1]; 8 mg/kg, HAF extract, mid dose (8.0 mg/kg as AA I), analyte dose mg/kg: AA I 8.0, AA II 0.69, AA C 4.09, AA D 4.03, 7-OH AA I 6.62, n = 6, read-out: t 1/2z (converted)
  half-life: 4.72 ± 0.52 h
[1]; [7]
  AUC(0-inf): 26800 ± 3260 ng·h/mL
  Cmax: 5890 ± 426 ng/mL
  Tmax: 0.69 ± 0.1 h
[1]; 15 mg/kg, AF extract, high dose (15.0 mg/kg as AA I), analyte dose mg/kg: AA I 15.0, AA II 1.05, AA C 7.09, AA D 8.00, 7-OH AA I 11.66, n = 6, read-out: CLz/F (converted)
  CL/F: 14.5 mL/min/kg
[1]; 15 mg/kg, AF extract, high dose (15.0 mg/kg as AA I), analyte dose mg/kg: AA I 15.0, AA II 1.05, AA C 7.09, AA D 8.00, 7-OH AA I 11.66, n = 6, read-out: Vz/F
  Vd/F: 7.13 ± 0.57 L/kg
[1]; 15 mg/kg, AF extract, high dose (15.0 mg/kg as AA I), analyte dose mg/kg: AA I 15.0, AA II 1.05, AA C 7.09, AA D 8.00, 7-OH AA I 11.66, n = 6, read-out: t 1/2z (converted)
  half-life: 5.46 ± 0.53 h
[1]; [8]
  AUC(0-inf): 11800 ± 1770 ng·h/mL
  Cmax: 3470 ± 352 ng/mL
  Tmax: 0.47 ± 0.08 h
[1]; 15 mg/kg, HAF extract, high dose (15.0 mg/kg as AA I), analyte dose mg/kg: AA I 15.0, AA II 1.29, AA C 7.66, AA D 7.56, 7-OH AA I 12.41, n = 6, read-out: CLz/F (converted)
  CL/F: 12 mL/min/kg
[1]; 15 mg/kg, HAF extract, high dose (15.0 mg/kg as AA I), analyte dose mg/kg: AA I 15.0, AA II 1.29, AA C 7.66, AA D 7.56, 7-OH AA I 12.41, n = 6, read-out: Vz/F
  Vd/F: 5.53 ± 0.52 L/kg
[1]; 15 mg/kg, HAF extract, high dose (15.0 mg/kg as AA I), analyte dose mg/kg: AA I 15.0, AA II 1.29, AA C 7.66, AA D 7.56, 7-OH AA I 12.41, n = 6, read-out: t 1/2z (converted)
  half-life: 5.32 ± 0.54 h
[2]; [9]
  Short-term stability (RSD/%): 6.5%
  Post-preparation stability (RSD/%): 4.5%
  Long-term stability (RSD/%): 7.6%
  Freeze-thaw stability (RSD/%): 12.9%
[2]; [10]
  Short-term stability (RSD/%): 0.58%
  Post-preparation stability (RSD/%): 0.65%
  Long-term stability (RSD/%): 0.28%
  Freeze-thaw stability (RSD/%): 1.1%
[2]; [11]
  Short-term stability (RSD/%): 8.7%
  Post-preparation stability (RSD/%): 2.0%
  Long-term stability (RSD/%): 6.9%
  Freeze-thaw stability (RSD/%): 10.3%
